“Also recorded” adds a separate entry of the source.

These results are taken from patent US10118943B2, “Compounds and methods for inhibiting cell death” (Ramot at Tel-Aviv University Ltd., priority 2012, dated 2018).

Data set [1] has as its system rat brain extracts. The data set can be described thus: NAP / D-SAL affinity chromatography with rat brain extracts, mass spectrometry. In kind it is binding. The following applies: repeated twice. As to the method: The affinity chromatography column included SulfoLink® Immobilization Kit for Peptides (44999, Thermo Scientific, Rockford, Ill., USA). Binding of […] was performed according to the manufacturers' instruction. Recombinant protein was loaded (2 mg/mL) on the columns (2 mL) and incubated overnight at 4° C.; the columns were then washed with phosphate-buffered saline until all unbound protein was eluted [as confirmed by protein assay (Bradford; Bio-Rad Laboratories, Mannheim, Germany)]. NAP-binding proteins were eluted in IgG Elution buffer (pH 2.8) (Thermo scientific). […] Sodium dodecyl sulfate-polyacrylamide gel electrophoresis (SDS-PAGE) was then performed followed by western blot analysis in order to detect the protein (R. Zamostiano et al., J Biol Chem 276, 708 (Jan. 5, 2001)).
Affinity chromatography was carried out as above with rat brain extracts as before (34, 36). However, several additional experiments were undertaken and mass spectrometry was employed to identify additional potential NAP-interacting proteins that elute from the affinity column.

Data set [2] concerns PC12 cells. The data set can be described thus: PC12 cell survival assay, zinc toxicity, MTS (Example 1). The conditions noted are these: for protection against zinc-induced PC12 cell death (MTS) with EB3 silenced: RNA silencing of EB3. The protocol:
PC12 cells (Pheochromocytoma cells) (ATCC, Bethesda, Md., USA) were seeded at 3×10^4 cells/cm^2 on poly-L-Lysine coated plastic tissue culture dishes (Corning, Lowell, Mass., USA) to form an adherent monolayer. Cells were maintained in Dulbecco's modified Eagle's medium (DMEM) supplemented with 10% horse serum (HS), 5% fetal calf serum (FCS), 2 mM glutamine, 100 U/ml penicillin and […] streptomycin (Biological Industries, Beit Haemek, Israel). PC12 differentiation was induced by nerve growth factor (NGF, Sigma) at concentrations of 50 ng/ml by replacing half of the medium every other day until the cells acquired a differentiated morphology. Differentiated cells were defined as bearing two or more neurites with lengths equal to or more than twice the diameter of the cell body (P. Lamoureux et al., The Journal of cell biology 110, 71 (January, 1990)). The cells were incubated in 5% CO2 in a humidified incubator at 37° C. The cells were sub-cultured every 5 days at a 4:1 split ratio by pipetting. The medium was changed every 2 or 3 days after adhesion.
Transfections were performed using Lipofectamine RNAiMAX (Invitrogen). Transfection was carried out according to manufacturer's protocol. For rat MAPRE3 knockdown, PC12 cells or neurons were plated in growth medium without antibiotics at concentration of 10^4 cells/0.32 cm^2 such that they will be 30-50% confluent at the time of transfection. To obtain the highest transfection efficiency and low non-specific effects, siRNA transfection was performed in the following optimized conditions: 50 nM for neurons and 25 nM PC12 of each siRNA construct with 0.2 μl Lipofectamine RNAiMAX (Invitrogen) was added per well of the 96-well plate and scaled up for different 24 or 6-well plates, according to the manufacturer's instructions. The medium was changed one day after transfection. 48 and 72 hours later, cells were harvested to assay for gene knockdown at the RNA and protein levels.
The cells were incubated for 4 hrs at 37° C. 5% CO2. Survival was measured using the MTS assay.
Metabolic activity of cells was measured by the CellTiter 96® Aqueous Non-Radioactive Cell Proliferation kit in accordance with the manufacturer's instructions (Promega). The assay uses a colorimetric method for determining the number of viable cells employing a tetrazolium compound [3-(4,5-dimethylthiazol-2-yl)-5-(3-carboxymethoxyphenyl)-2-(4-sulfophenyl)-2H-tetrazolium, MTS] and an electron-coupling reagent, phenazine methosulfate (PMS). MTS is bio-reduced by cells into a formazan product that is detected at 490 nm. The conversion of MTS into the formazan form is accomplished by dehydrogenase enzymes found in metabolically active cells. Thus, the quantity of formazan product as measured by the amount of 490 nm absorbance is directly proportional to the number of living cells in culture (A. H. Cory, T. C. Owen, J. A. Barltrop, J. G. Cory, Cancer Commun 3, 207 (July, 1991)).

The subject of data set [3] is primary cortical neurons. The data set can be described thus: PSD-95 density in primary cortical neuron culture. It counts as cell-based, rat. The protocol:
Methods: 1. Primary cultures of neurons were prepared as follows. Newborn rats were sacrificed on postnatal day 1. Cerebral cortex tissue was then dissected and dissociated individually from each pup with the Papain Dissociation System (PDS; Worthington Biochemical Corporation) according to the manufacturer's instructions. 2. Cells were fixed with ice cold methanol, blocked with 2% bovine serum albumin (BSA) and 5% normal goat serum in Tris buffered saline containing tween 20 (TBS-T; 20 mM Tris pH 7.5, 136.8 mM NaCl, and 0.05% v/v Tween 20), and incubated with primary antibody followed by the appropriate secondary antibody. 3. Primary antibodies that were used include: monoclonal anti PSD-95 (ab-2723, Abcam), monoclonal anti Tyr-α-tubulin antibody (YL1/2) (VMA1864, Abcys, Paris, France), polyclonal anti Glu-α-tubulin antibody (L4) (AbC0101, Abcys, Paris, France), DyLight 488-labeled secondary goat anti-mouse IgG, DyLight 633-labeled secondary goat anti-rabbit IgG (KPL, Gaithersburg, Md., USA), Cy3-conjugated secondary goat anti-Rat IgG, (Jackson ImmunoResearch). 4. Images were collected with a Leica SP5 confocal laser scanning microscope (Mannheim, Germany) with 63× oil immersion optics, laser lines at 488, 561, 633 nm. Identical confocal laser scanning microscopy (CLSM) parameters (e.g., scanning line, laser light, gain, and offset etc.) were used for control and NAP treated cells.
For instance, a PSD-95 expression assay using primary cortical neuron cultures established from suitable animals may be performed to confirm a compound's activity in promoting cell plasticity. More specifically, primary cultures of neurons are prepared by first taking cerebral cortex tissue from newborn rats on postnatal day 1. The cerebral cortex tissue is then dissected and dissociated individually from each animal. Cells are fixed with ice cold methanol, blocked (e.g., with bovine serum albumin (BSA) and normal goat serum), and incubated with primary antibody (e.g., monoclonal antibody against PSD-95), optionally followed by the appropriate secondary antibody for imaging purposes. Images of primary neuronal cultures are taken and compared between cultures with or without being exposed to a test compound. An increased PSD-95 expression is indicative of the test compound being capable of promoting or protecting cell plasticity, especially neuronal plasticity.
Cerebral cortex tissue from newborn rats was dissected and dissociated individually from each pup with the Papain Dissociation System (PDS), (Worthington Biochemical Corporation) according to the manufacturer's instructions. Cortical neurons were maintained in Neurobasal medium (NB), (Gibco) supplemented with NeuroCult B27-SM1 ([…]), 1% Glutamax (Gibco), and grown on poly-D-lysine-coated cell culture glass cover slips.
Images were collected with a Leica SP5 confocal laser scanning microscope (Mannheim, Germany) with 63× oil immersion optics, laser lines at 488, 561, 633 nm or with LSM 510 META (Zeiss, Jena, Germany) confocal laser scanning microscope with 63× oil immersion optics, laser lines at 488, 568, 633 nm. When comparing fluorescence intensities, identical CLSM parameters (e.g., scanning line, laser light, gain, and offset etc.) were used. All of the fluorescent signals acquired were above the autofluorescent background as measured from a control slide stained with secondary antibody without a primary antibody. To compare the relative levels of protein expression, the average integrated density (AID) image analysis procedure was used for cell immunostains. In brief, integrated density is defined by the sum of the values of the pixels in the selected region of interest (ROI). This is equivalent to the product of Area and Mean Gray Value. AID for the positive stained area was determined by measuring the fluorescent intensity of the ROI, which is above the positive cut-off intensity. […]

The subject of data set [4] is PC12 cells. The conditions noted are these: ZnCl2 400 μM, 4 h. As to the method: FIG. 15: Rat pheochromocytoma cells (PC12) were seeded on Poly-D-Lysine coated 96-well tissue culture dishes in high concentration (30,000 cells/well). On the day of the experiment the cells were treated with ZnCl2 (400 μM) either alone or in combination with different concentration of SKIP for 4 h. After 4 h the cell viability was analyzed by MTS assay. […] All values are from one experiment performed in hexplicate.
Rat pheochromocytoma cell (PC12, ATCC, Bethesda, Md., USA) were grown in 10-cm tissue culture dishes (Corning). The base medium for this cell line was RPMI-1640 Medium (Invitrogen) supplemented with 10% heat-inactivated horse serum, 5% fetal bovine serum and solution containing 100 U/ml penicillin together with […] streptomycin (Biological Industries, Beit Haemek, Israel). The cells were incubated in 95% air; 5% CO2 in a humidified incubator at 37° C. The medium was changed every 2 to 3 days. The cells were subcultured when cell density reached 4×10^6 cells/ml. The cells were split in a ratio of 1:4.
On the day before the experiment cells were to be harvested, re-suspended and seeded on tissue culture dishes. For cell viability measurements, cells were seeded on Poly-D-Lysine coated 96-well tissue culture dishes (Sigma-Aldrich) at a concentration of 3×10^4 cells/well.
The cell viability is measured by colorimetric method that determines the number of viable cells in culture. This method is based on the bio-reduction of the tetrazolium compound [3-(4,5-dimethylthiazol-2-yl)-5-(3-carboxymethoxyphenyl)-2-(4-sulfophenyl)-2H-tetrazolium; MTS] by living cells into a colored formazan product. This reaction is occurring in the presence of an electron coupling reagent (phenazine ethosulfate; PES). The amount of formazan product is measured by ELISA plate reader at 490 nm and is directly proportional to the number of living cells in culture (CellTiter 96® AQueous One Solution Cell Proliferation Assay; Promega, Madison, Wis., USA).

Data set [5] has as its system PC12 cells. The conditions noted are these: previously published data, read-out: EC50 for zinc cell killing effect; cited from earlier work.
Data set [6] concerns the target T1, Full-length human EB3 recombinant protein (human, UniProt Q9UPY8 1-281).
T1 construct: mature; Full-length protein; also called recombinant EB3; MAPRE3
Nature of the data set: competition with soluble peptide on the NAP affinity column; western blot. The protocol:
Column load, flow through, wash and elution fractions were further analyzed by polyacrylamide gel electrophoresis, followed by western analysis with EB3 antibodies. […] Column chromatography, elution and western blots were performed as above. The extract fractions (flow, wash and elution) were separated by electrophoresis followed by protein detection (FIG. 6). […] In order to verify that EB3 was indeed eluted from the column, beads were taken from the column resin mixed with sample buffer and western blot analysis was performed (FIG. 6—"[…]" most right lane).

T1 sequence (Q9UPY8 whole entry): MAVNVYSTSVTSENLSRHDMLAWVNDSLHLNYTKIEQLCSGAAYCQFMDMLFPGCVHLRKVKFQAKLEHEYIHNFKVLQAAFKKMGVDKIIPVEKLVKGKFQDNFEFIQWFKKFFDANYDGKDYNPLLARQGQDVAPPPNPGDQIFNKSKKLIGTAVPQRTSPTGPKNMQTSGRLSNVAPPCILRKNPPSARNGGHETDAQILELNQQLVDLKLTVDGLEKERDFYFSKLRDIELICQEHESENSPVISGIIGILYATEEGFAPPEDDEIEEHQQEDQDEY

Regarding `CC[C@H](C)[C@H](NC(=O)[C@H](CO)NC(=O)[C@@H](NC(=O)[C@@H]1CCCN1C(=O)[C@H](C)NC(=O)[C@@H](N)CC(N)=O)C(C)C)C(=O)N1CCC[C@H]1C(=O)N[C@@H](CCC(N)=O)C(=O)O` [NAP], the “interaction with drebrin (affinity column eluate, mass spectrometry)” value in data set [1] is given as “specific interaction”. In addition, in data set [2] (400 μM zinc, 4 hrs, peptide 10^−9M), the “protection against cell death induced by zinc toxicity (MTS survival)” value was “significant protection effect; also recorded: significantly increased survival”. In addition, in data set [2] (400 μM zinc, 4 hrs, peptide 10^−15M), the “protection against cell death induced by zinc toxicity (MTS)” value was “significant protection effect”. Further, the “protection against zinc-induced PC12 cell death (MTS) with EB3 silenced” value in data set [2] (500 microM zinc, NAP 10^−15M) is “not in the presence of EB3 silencing”; in data set [2] (500 microM zinc, NAP 10^−15M, listed as NAPVSIPQ), “does not protect”. Further, the “protection against zinc-induced PC12 cell death (MTS)” value in data set [2] (500 microM zinc, NAP 10^−15M, control situations (non-specific siRNA, no treatment)) is given as “protected against by NAP treatment; also recorded: protects in the control situations”. Also, the “effect on PSD-95 expression with EB3 silencing” value in data set [3] (10^−12M NAP, 48 hours siRNA against EB3) is recorded as “abolished NAP activity; also recorded: completely inhibited”. For the same molecule, in data set [3] (10^−12M, 2 hrs, 13 DIV cortical neurons (FIG. 10d)), the “increase in PSD-95 expression” value came out at 75%. The “PSD-95 expression in dendrites (FIG. 11)” value in data set [3] (10^−12M, DIV 13, 2 hours) was “enhances PSD-95 expression”. The “density of PSD-95 puncta vs vehicle controls” value in data set [3] (NAP 10^−18M-10^−9M, DIV 13, 2 hrs) was “significantly increased”. The “peak effect on density of PSD-95 over control” value in data set [3] (NAP concentration of 10-12M, 2 hours) was 50%. In data set [3] (neurons treated for 2 hrs), the “derivative peptides effect on PSD-95 density vs vehicle controls (FIG. 10c)” value is listed as “significantly increased”.

Broadly, the EC50 is the concentration that produces a half-maximal response. `[Cl-].[Cl-].[Zn+2]` [zinc, ZnCl2]: the “zinc concentration at which significant cell death was observed” value in data set [2] (PC12 cells, 4 hrs, data not shown) is more than 200 µM. Also, in data set [2] (vs control without zinc), the “reduction of cell viability by zinc” value is approximately 25%. In data set [4], the “cell death from zinc treatment” value is recorded as approximately 20%. Also, the half-maximal effective concentration (EC50) in data set [5] was 308 ± 38 µM.

Take NAPVSKIPQ: the binding result in data set [6] is recorded as “binds”.
